pEC50: −log10 of the molar value.
System: HIV-1 303B
Experiment: microbe, parasite or virus in culture
Type: cell-based
Settings: for pEC50: Human immunodeficiency virus 1, MT2, 120 h; for overall antiviral effect of the two-drug combination with Example 19 (in words): classification from combination indices and confidence intervals; for Combination Indices at 50% HIV Inhibition (Confidence Interval) / Combination Indices at 75% HIV Inhibition (Confidence Interval) / Combination Indices at 90% HIV Inhibition (Confidence Interval): in combination with Example 19, 95% CI in parenthesis
Experimental: Virus and cell lines. The T-cell line, MT-2, was obtained through the AIDS Research and Reference Reagent Program. MT-2 cells were sub-cultured twice a week in RPMI 1640 medium supplemented with 10% fetal bovine serum, 2 mM L-glutamine, and 10 mM HEPES buffer pH 7.5. The HIV-1303B virus is a molecular clone derived from the NL4-3 strain of HIV-1 that was obtained from the NIH AIDS Research and Reference Reagent Program. For combinations with enfuvirtide, the NL36G virus was used. […] Virus stocks were made by transfecting 293T cells with a proviral DNA clone using LipofectAMINE PLUS (Invitrogen), according to the manufacturer's instructions. Three days post-transfection, virus was harvested and passaged once in MT-2 cells before titration in MT-2 cells.
Chemicals. Example 19, atazanavir, didanosine, stavudine, efavirenz, and enfuvirtide (T-20) were synthesized by Bristol-Myers Squibb using published or known reactions. […] Tenofovir was tested as tenofovir disopoxil fumarate. Zidovudine and zalcitabine were purchased from Sigma, and emtricitabine from Moravek Biochemicals.
Drug Susceptibility and Cytotoxicity Assays. For drug susceptibility assays, MT-2 cells were infected with HIV-1 303B (or NL36G), at an MOI of 0.001, and seeded into 96-well microtiter plates (2.5×10^5 cells/ml) containing serial dilutions of test compounds. […] Each drug ratio consisted of an array of 3-fold serial dilutions, and was performed with eight or more replicas on separate multi-well plates. HIV infected cells were incubated at 37° C. in 5% CO2, and on day five post-infection, the extent of virus replication was measured by determining cell viability using the CellTiter 96 Aqueous Non-Radioactive Cell Proliferation Assay (Promega). […] Cytotoxicity assays were performed in parallel with the combination experiments. Here, uninfected cells were exposed to the same drug combinations, and assayed after five days for cell viability using the MTS assay.
Analysis of Drug Combination Effects. For determination of combination index (CI) values, drugs were diluted in a fixed ratio and multiple ratios were analyzed. The drug serial dilutions spanned a range of concentrations near the EC50 value of each compound, so that equivalent antiviral activities could be compared. The normalized responses from each therapy are fit to the four-parameter logistic model with a common minimum and maximum across all therapies. Conceptually, this equation can be written as
In this equation, Fa stands for “fraction affected,” and represents the fraction of the viral load that has been inactivated. […] The EC50, represented by the Ci in the above equation, is the drug concentration that is expected to reduce the amount of virus by 50%, and the Bi are the parameters that reflects the slope of the concentration-response curve. For this assay, A is the bottom plateau common to all curves, D is the common top plateau, Bj is the “slope” parameter for the jth therapy, and Cj is the concentration that produces an effect equal to the average of A and D for the jth therapy. Therapies 1 and 2 correspond to mono therapies 1 and 2, respectively. Therapies 3, 4, and 5 correspond to the three combination therapies. EC50 values for each drug were determined from the single drug experiments, using the above equation. The equation was fit using a nonlinear regression routine (Proc Nlin) in PC SAS version 8.2 (SAS Institute Inc.).
To assess antiviral effects of different drug combination treatments, combination indices (CIs) were calculated according to Chou and Rideout. The combination index was computed as
In this equation [Dm]1 and [Dm]2 are the concentrations of drugs that would individually produce a specific level of effect, while [D]1 and [D]2 are the concentrations of drugs in combination that would produce the same level of effect.
Theoretically, additivity is implied if the CI is equal to one, synergy if the CI is less than one, and antagonism if the CI is greater than one.

[1] = EC50 ratio Example 19:comparator 1:1
[2] = EC50 ratio Example 19:comparator 1:2.5
[3] = EC50 ratio Example 19:comparator 2.5:1

SMILES: Nc1nc(NC2CC2)c2ncn([C@H]3C=C[C@@H](CO)C3)c2n1 [Abacavir, abacavir]
- pEC50: 5.98
- overall antiviral effect of the two-drug combination with Example 19 (in words): synergistic
- Combination Indices at 50% HIV Inhibition (Confidence Interval) [1]: 0.68 (0.59, 0.76)
- Combination Indices at 75% HIV Inhibition (Confidence Interval) [1]: 0.67 (0.56, 0.79)
- Combination Indices at 90% HIV Inhibition (Confidence Interval) [1]: 0.67 (0.49, 0.84)
- Combination Indices at 50% HIV Inhibition (Confidence Interval) [2]: 0.87 (0.77, 0.97)
- Combination Indices at 75% HIV Inhibition (Confidence Interval) [2]: 0.74 (0.63, 0.85)
- Combination Indices at 90% HIV Inhibition (Confidence Interval) [2]: 0.63 (0.50, 0.77)
- Combination Indices at 50% HIV Inhibition (Confidence Interval) [3]: 0.86 (0.76, 0.96)
- Combination Indices at 75% HIV Inhibition (Confidence Interval) [3]: 0.82 (0.68, 0.96)
- Combination Indices at 90% HIV Inhibition (Confidence Interval) [3]: 0.79 (0.58, 0.99)

SMILES: CC(C)CN(C[C@@H](O)[C@H](Cc1ccccc1)NC(=O)O[C@H]1CCOC1)S(=O)(=O)c1ccc(N)cc1 [Amprenavir, amprenavir]
- pEC50: 7.21
- overall antiviral effect of the two-drug combination with Example 19 (in words): synergistic-additive effect
- Combination Indices at 50% HIV Inhibition (Confidence Interval) [1]: 0.83 (0.67, 1.00)
- Combination Indices at 75% HIV Inhibition (Confidence Interval) [1]: 0.84 (0.61, 1.08)
- Combination Indices at 90% HIV Inhibition (Confidence Interval) [1]: 0.89 (0.50, 1.23)
- Combination Indices at 50% HIV Inhibition (Confidence Interval) [2]: 0.84 (0.69, 0.99)
- Combination Indices at 75% HIV Inhibition (Confidence Interval) [2]: 0.77 (0.58, 0.96)
- Combination Indices at 90% HIV Inhibition (Confidence Interval) [2]: 0.75 (0.46, 1.04)
- Combination Indices at 50% HIV Inhibition (Confidence Interval) [3]: 0.90 (0.77, 1.04)
- Combination Indices at 75% HIV Inhibition (Confidence Interval) [3]: 0.62 (0.50, 0.74)
- Combination Indices at 90% HIV Inhibition (Confidence Interval) [3]: 0.44 (0.30, 0.57)

SMILES: COC(=O)N[C@H](C(=O)N[C@@H](Cc1ccccc1)[C@@H](O)CN(Cc1ccc(-c2ccccn2)cc1)NC(=O)[C@@H](NC(=O)OC)C(C)(C)C)C(C)(C)C [Atazanavir, atazanavir]
- pEC50: 8.00
- overall antiviral effect of the two-drug combination with Example 19 (in words): confidence interval is below one at all concentrations and effective levels
- Combination Indices at 50% HIV Inhibition (Confidence Interval) [1]: 0.87 (0.79, 0.96)
- Combination Indices at 75% HIV Inhibition (Confidence Interval) [1]: 0.67 (0.55, 0.80)
- Combination Indices at 90% HIV Inhibition (Confidence Interval) [1]: 0.52 (0.37, 0.67)
- Combination Indices at 50% HIV Inhibition (Confidence Interval) [2]: 0.65 (0.51, 0.78)
- Combination Indices at 75% HIV Inhibition (Confidence Interval) [2]: 0.45 (0.31, 0.58)
- Combination Indices at 90% HIV Inhibition (Confidence Interval) [2]: 0.31 (0.19, 0.44)
- Combination Indices at 50% HIV Inhibition (Confidence Interval) [3]: 0.78 (0.69, 0.86)
- Combination Indices at 75% HIV Inhibition (Confidence Interval) [3]: 0.60 (0.54, 0.67)
- Combination Indices at 90% HIV Inhibition (Confidence Interval) [3]: 0.47 (0.40, 0.54)

SMILES: CC(C)Nc1cccnc1N1CCN(C(=O)c2cc3cc(NS(C)(=O)=O)ccc3[nH]2)CC1 [Delavirdine, delavirdine]
- pEC50: 7.37
- Combination Indices at 50% HIV Inhibition (Confidence Interval) [1]: 0.76 (0.64, 0.89)
- Combination Indices at 75% HIV Inhibition (Confidence Interval) [1]: 0.60 (0.47, 0.74)
- Combination Indices at 90% HIV Inhibition (Confidence Interval) [1]: 0.48 (0.31, 0.64)
- Combination Indices at 50% HIV Inhibition (Confidence Interval) [2]: 0.68 (0.58, 0.77)
- Combination Indices at 75% HIV Inhibition (Confidence Interval) [2]: 0.44 (0.32, 0.54)
- Combination Indices at 90% HIV Inhibition (Confidence Interval) [2]: 0.28 (0.17, 0.39)
- Combination Indices at 50% HIV Inhibition (Confidence Interval) [3]: 0.80 (0.68, 0.92)
- Combination Indices at 75% HIV Inhibition (Confidence Interval) [3]: 0.53 (0.42, 0.63)
- Combination Indices at 90% HIV Inhibition (Confidence Interval) [3]: 0.35 (0.25, 0.45)

SMILES: O=c1[nH]cnc2c1ncn2[C@H]1CC[C@@H](CO)O1 [Didanosine, didanosine]
- pEC50: 4.97
- overall antiviral effect of the two-drug combination with Example 19 (in words): synergistic
- Combination Indices at 50% HIV Inhibition (Confidence Interval) [1]: 0.58 (0.53, 0.63)
- Combination Indices at 75% HIV Inhibition (Confidence Interval) [1]: 0.47 (0.35, 0.60)
- Combination Indices at 90% HIV Inhibition (Confidence Interval) [1]: 0.39 (0.22, 0.56)
- Combination Indices at 50% HIV Inhibition (Confidence Interval) [2]: 0.56 (0.51, 0.62)
- Combination Indices at 75% HIV Inhibition (Confidence Interval) [2]: 0.46 (0.40, 0.52)
- Combination Indices at 90% HIV Inhibition (Confidence Interval) [2]: 0.38 (0.32, 0.44)
- Combination Indices at 50% HIV Inhibition (Confidence Interval) [3]: 0.50 (0.46, 0.54)
- Combination Indices at 75% HIV Inhibition (Confidence Interval) [3]: 0.49 (0.44, 0.53)
- Combination Indices at 90% HIV Inhibition (Confidence Interval) [3]: 0.48 (0.42, 0.54)

SMILES: O=C1Nc2ccc(Cl)cc2[C@@](C#CC2CC2)(C(F)(F)F)O1 [Efavirenz, efavirenz]
- pEC50: 8.80
- overall antiviral effect of the two-drug combination with Example 19 (in words): synergism at most effective concentrations and molar ratios
- Combination Indices at 50% HIV Inhibition (Confidence Interval) [1]: 0.83 (0.75, 0.92)
- Combination Indices at 75% HIV Inhibition (Confidence Interval) [1]: 0.76 (0.64, 0.88)
- Combination Indices at 90% HIV Inhibition (Confidence Interval) [1]: 0.70 (0.54, 0.85)
- Combination Indices at 50% HIV Inhibition (Confidence Interval) [2]: 0.95 (0.86, 1.04)
- Combination Indices at 75% HIV Inhibition (Confidence Interval) [2]: 0.93 (0.85, 1.02)
- Combination Indices at 90% HIV Inhibition (Confidence Interval) [2]: 0.93 (0.79, 1.06)
- Combination Indices at 50% HIV Inhibition (Confidence Interval) [3]: 1.01 (0.92, 1.10)
- Combination Indices at 75% HIV Inhibition (Confidence Interval) [3]: 0.96 (0.83, 1.10)
- Combination Indices at 90% HIV Inhibition (Confidence Interval) [3]: 0.94 (0.73, 1.14)

SMILES: Nc1nc(=O)n([C@@H]2CS[C@H](CO)O2)cc1F [Emtricitabine, emtricitabine]
- pEC50: 7.28
- overall antiviral effect of the two-drug combination with Example 19 (in words): synergistic
- Combination Indices at 50% HIV Inhibition (Confidence Interval) [1]: 0.31 (0.27, 0.36)
- Combination Indices at 75% HIV Inhibition (Confidence Interval) [1]: 0.23 (0.18, 0.28)
- Combination Indices at 90% HIV Inhibition (Confidence Interval) [1]: 0.18 (0.12, 0.24)
- Combination Indices at 50% HIV Inhibition (Confidence Interval) [2]: 0.31 (0.26, 0.37)
- Combination Indices at 75% HIV Inhibition (Confidence Interval) [2]: 0.23 (0.19, 0.29)
- Combination Indices at 90% HIV Inhibition (Confidence Interval) [2]: 0.17 (0.12, 0.28)
- Combination Indices at 50% HIV Inhibition (Confidence Interval) [3]: 0.33 (0.28, 0.38)
- Combination Indices at 75% HIV Inhibition (Confidence Interval) [3]: 0.25 (0.20, 0.30)
- Combination Indices at 90% HIV Inhibition (Confidence Interval) [3]: 0.19 (0.13, 0.25)

From patent US7491819B1 (priority 2004, dated 2009)
